From patent US7223769B2, “Pyrimidine compounds and their use as pesticides” (Sumitomo Chemical Company, Limited, priority 2002, dated 2007)

These molecules were tested on Frankliniella occidentalis (Western flower thrips) (assay: Test Example 2: sprayed cucumber leaf, larvae of Frankliniella occidentalis set free, surviving pests counted). Conditions: 500 ppm spray solution, 20 ml/cup, cucumber first true leaf, thirty larvae set free, after seven days.
Assay type: in vivo
Procedure: Ten parts of each of the present compounds (2), (4), (6), (7), (8), (11), (12), (14), (16), (17), (19) to (24), (26), (28), (29), (34), (36) to (38), and (40); white carbon containing 50 parts of polyoxyethylene alkyl ether sulfate ammonium salt; and […] of water were mixed and pulverized by the wet grinding method to give a formulation for each compound. The formulation of each present compound was diluted with water so that the active ingredient concentration came to 500 ppm to prepare a spray solution.
A polyethylene cup was seeded with cucumber and a plant was grown until the first true leaf was developed, to which the above spray solution was applied at a ratio of 20 ml/cup. After the chemical solution sprayed to the cucumber were dried, the first true leaf was cut off and placed on a filter paper (70 mm in diameter) impregnated with water in a polyethylene cup (110 mm in diameter). Thirty larvae of Frankliniella occidentalis (Western flower thrips) were set free on the first true leaf, which was covered with a polyethylene cup. After seven days, the number of surviving pests was examined.

SMILES	number of surviving pests
CC#CCOc1cc(OC(C)C2CC2)ncn1 (stereo not drawn) [present compound (2), 4-(2-butynyloxy)-6-(1-cyclopropylethoxy)pyrimidine]	0
CC#CCOc1cc(OC(CC)C(C)(C)C)ncn1 (stereo not drawn) [present compound (4), 4-(2-butynyloxy)-6-(1-ethyl-2,2-dimethylpropyloxy)pyrimidine]	0
CC#CCOc1cc(OCC(C)(C)C)ncn1 [present compound (6), 4-(2-butynyloxy)-6-(2,2-dimethylpropyloxy)pyrimidine]	0
CC#CCOc1cc(OC(C)CC(C)(C)C)ncn1 (stereo not drawn) [present compound (7), 4-(2-butynyloxy)-6-(1,3,3-trimethylbutyloxy)pyrimidine]	0
CC#CCOc1cc(OC(C)C2(C)CC2)ncn1 (stereo not drawn) [present compound (8), 4-(2-butynyloxy)-6-[1-(1-methylcyclopropyl)ethyloxy]pyrimidine]	0
CC#CCOc1cc(OCCC(C)(C)C)ncn1 [present compound (11), 4-(2-butynyloxy)-6-(3,3-dimethylbutyloxy)pyrimidine]	0
CC#CCOc1cc(OC(C)C(C)C)ncn1 (stereo not drawn) [present compound (12), 4-(2-butynyloxy)-6-(1,2-dimethylpropyloxy)pyrimidine]	0
CC#CCOc1cc(OC(C)C(C)(C)F)ncn1 (stereo not drawn) [present compound (14), 4-(2-butynyloxy)-6-(2-fluoro-1,2-dimethylpropyloxy)pyrimidine]	0
CC#CCOc1cc(OC(C)C(C)CC)ncn1 (stereo not drawn) [present compound (16), 4-(2-butynyloxy)-6-(1,2-dimethylbutyloxy)pyrimidine]	0
CCC#CCOc1cc(OC(C)C(C)(C)F)ncn1 (stereo not drawn) [present compound (17), 4-(2-fluoro-1,2-dimethylpropyloxy)-6-(2-pentynyloxy)pyrimidine]	0
CC#CCOc1cc(OC(C)C2CCCC2)ncn1 (stereo not drawn) [present compound (26), 4-(2-butynyloxy)-6-(1-cyclopentylethyloxy)pyrimidine]	0
CC#CCOc1cc(OCC(C)(C)F)ncn1 [present compound (28), 4-(2-butynyloxy)-6-(2-fluoro-2-methylpropyloxy)pyrimidine]	0
CC#CCOc1cc(OC(C)C(Cl)Cl)ncn1 (stereo not drawn) [present compound (29), 4-(2-butynyloxy)-6-(2,2-dichloro-1-methylethyloxy)pyrimidine]	0
CC#CCOc1cc(OC(C)C(C)(C)Cl)ncn1 (stereo not drawn) [present compound (34), 4-(2-butynyloxy)-6-(2-chloro-1,2-dimethylpropyloxy)pyrimidine]	0
CCC#CCOc1cc(OCC(C)(C)Cl)ncn1 [present compound (40), 4-(2-pentynyloxy)-6-(2-chloro-2-methylpropyloxy)pyrimidine]	0
